Source: US8748173B2 (priority 1998, dated 2014)
“And” between values parts separate entries of the source, which are not always exact repeats. Equal values may be shown once.

System: Bacillus subtilis spores
Assay type: binding

Substance	binding to B. subtilis spores	concentration at which the peptide stained spores
Peptide Anti-spore (RFTISRDNPKNTLFLQMTC; Peptide Anti-spore artificial peptide corresponding to consensus sequence in the framework 3 region of antibodies against Bacillus subtilis spores.)	bind strongly and specifically	2 μg/ml and 1 μM
Peptide 7183 consensus (RFTISRDNAKNTLYLQMSC; Peptide 7183 artificial peptide corresponding to consensus sequence in 7183 VH gene family.) [reference compound]		200 μg/ml and 100 μM
